How the values were obtained:
[1] = biological target: T1, spermidine synthase (Homo sapiens, UniProt P19623); test: Activity measurement of spermidine synthase by ELISA; format: biochemical; conditions: measured by ELISA; read-out: IC50 value, inhibition of MTA production by SPDS
T1 construct: Human SPDS gene was amplified by PCR, inserted into an entry vector pENTR11; made in house; host or cells: HEK293 cells (transient transfection, Lipofectamine 2000)
T1 sequence (P19623 1-302): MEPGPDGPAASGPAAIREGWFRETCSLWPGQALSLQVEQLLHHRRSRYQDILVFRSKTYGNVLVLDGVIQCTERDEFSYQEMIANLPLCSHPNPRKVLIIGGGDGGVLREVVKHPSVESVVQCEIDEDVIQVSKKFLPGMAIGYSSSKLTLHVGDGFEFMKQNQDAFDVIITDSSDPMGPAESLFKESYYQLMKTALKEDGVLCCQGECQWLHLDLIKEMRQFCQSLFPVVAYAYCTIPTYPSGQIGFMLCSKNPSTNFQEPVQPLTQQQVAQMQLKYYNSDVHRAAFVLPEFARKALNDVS
Procedure: The amount of MTA in each well was calculated from the competitive curve described above, and the produced amount of MTA per an enzyme amount and a reaction time was determined to be defined as an enzyme activity. It was confirmed that a production amount of MTA was increased depending on a concentration of spermidine synthase and a reaction time. […] Pharma., 1991.). […] By detecting a production amount of MTA according to the present method, an inhibition effect of the test substance was measured.

[2] = biological target: T1, spermidine synthase; test: Activity measurement of spermidine synthase by HTRF; format: biochemical; conditions: measured by HTRF; read-out: IC50 value, inhibition of MTA production by SPDS
Procedure: 10 μL of spermidine synthase diluted with buffer C was added into 384-well assay plate (black, Corning). Then, to the plate was added 10 μl of the above substrate mixture, and reaction was conducted at room temperature. […] Then, each well was added with 20 μl of europium cryptate-labeled anti-MTA-7H8 antibody made to 288 ng/ml with buffer D, and the mixture was reacted for 16 hours at room temperature. Fluorescence of each well was measured by Rubyster (BMG Labtechnologis). An amount of MTA in each well was calculated from a standard curve, and converted to an amount of MTA per an enzyme amount and a reaction time, which was an enzyme activity. In FIG. 4, open circles represent reactivity to dcSAM and filled circles represent reactivity to MTA. […] It was confirmed that a production amount of MTA was increased depending on a concentration of spermidine synthase and a reaction time. […] By detecting a production amount of MTA according to the present method, an inhibition effect of the test substance was measured.

[3] = tested on: spermidine synthase; conditions: Shirahata et al., Biochem. Pharma., 1991; read-out: IC50 value in a publication; cited from earlier work
[4] = tested on: interaction of proteoglycan units with collagen; conditions: column of Sepharose 4B-collagen loaded with proteoglycan subunits; cited from earlier work
[5] = biological target: T2, alkaline phosphatase produced from cartilage (Homo sapiens, UniProt P05186); conditions: cited from earlier work
T2 sequence (P05186 18-501): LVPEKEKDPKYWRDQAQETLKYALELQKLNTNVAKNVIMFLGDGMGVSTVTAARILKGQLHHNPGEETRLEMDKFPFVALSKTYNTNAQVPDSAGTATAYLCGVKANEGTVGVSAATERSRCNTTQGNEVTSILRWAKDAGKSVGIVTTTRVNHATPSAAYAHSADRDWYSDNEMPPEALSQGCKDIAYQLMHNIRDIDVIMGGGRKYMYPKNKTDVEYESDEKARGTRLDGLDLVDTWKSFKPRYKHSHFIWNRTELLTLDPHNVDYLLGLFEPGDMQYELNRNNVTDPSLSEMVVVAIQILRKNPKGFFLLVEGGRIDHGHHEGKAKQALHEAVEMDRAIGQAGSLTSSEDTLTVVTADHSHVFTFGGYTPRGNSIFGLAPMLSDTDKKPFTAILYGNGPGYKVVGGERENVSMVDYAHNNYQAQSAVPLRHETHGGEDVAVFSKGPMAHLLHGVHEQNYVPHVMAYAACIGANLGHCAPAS

IC50 [1] [nM] | IC50 [2] [nM] | SMILES | IC50 [3] [nM] | capacity of displacing proteoglycan subunits from the column [4] | effect on activity of alkaline phosphatase produced from cartilage [5] | proteoglycan subunits removed from the column [4]
1000 | 1100 | CC1CCC(N)CC1 (stereo not drawn) [4-methylcyclohexylamine] | 1700 | – | – | –
– | – | NCCCCN [putrescine] | – | without effect | – | –
– | – | NCCCCNCCCN [spermidine] | – | showed the capacity of displacing proteoglycan subunits | increased the activity | about 90%
– | – | NCCCNCCCCNCCCN [spermine] | – | without effect | increased the activity | –

— patent publication US20070280946A1, “Antibody to 5' -Deoxy-5' - Methylthioadenosine And Uses Thereof” (priority 2004, published 2007)
